Consider eleven compounds from ChEMBL document CHEMBL3045230, “Synthesis and pharmacological evaluation of novel 4-isopropylthiazole-4-phenyl-1,2,4-triazole derivatives as potential antimicrobial and antitubercular agents” (Med Chem Res, 2013).

A word on the MIC: it is the least concentration at which growth counts as inhibited.

The test system of one data set is Klebsiella pneumoniae. Put plainly: Antimicrobial activity against Klebsiella pneumoniae ATCC 10031 assessed as growth inhibition after 24 hr by broth dilution assay method. To be noted: ATCC 10031, 24 h. Type of data set: functional.
The next data set concerns Bacillus subtilis. Nature of the data set: Antimicrobial activity against Bacillus subtilis ATCC 60511 assessed as growth inhibition after 24 hr by broth dilution assay method. In kind it is functional. Conditions: ATCC 60511, 24 h. (In general: Dilution methods test growth across graded concentrations, often in twofold steps.)
A further data set relates to Enterococcus faecalis. Put plainly: Antimicrobial activity against […] ATCC 14506 assessed as growth inhibition after 24 hr by broth dilution assay method. Type of data set: functional. Conditions: ATCC 14506, 24 h.
For a further data set, the system named is Staphylococcus aureus. Put plainly: Antimicrobial activity against Staphylococcus aureus ATCC 11632 assessed as growth inhibition after 24 hr by broth dilution assay method. Type of data set: functional. Conditions: ATCC 11632, 24 h.
Data set [1] concerns Mycobacterium tuberculosis. Put plainly: Antitubercular activity against Mycobacterium tuberculosis H37Rv assessed as growth inhibition after 21 days by broth dilution assay method. In kind it is functional. Conditions: 504 h.
In a further data set the test system is Aspergillus niger. Nature of the data set: Antimicrobial activity against Aspergillus niger ATCC 6275 assessed as growth inhibition after 24 hr by broth dilution assay method. To be noted: ATCC 6275, 24 h. In kind it is functional.
Another data set has as its system Candida tropicalis. Put plainly: Antimicrobial activity against Candida tropicalis ATCC 1369 assessed as growth inhibition after 24 hr by broth dilution assay method. In kind it is functional. Conditions: ATCC 1369, 24 h.
The next data set concerns Saccharomyces cerevisiae. Nature of the data set: Antimicrobial activity against Saccharomyces cerevisiae ATCC 9763 assessed as growth inhibition after 24 hr by broth dilution assay method. Conditions: ATCC 9763, 24 h. In kind it is functional.
The subject of another data set is Pseudomonas aeruginosa. Nature of the data set: Antimicrobial activity against Pseudomonas aeruginosa ATCC 10145 assessed as growth inhibition after 24 hr by broth dilution assay method. Type of data set: functional. To be noted: ATCC 10145, 24 h.
Another data set has as its system Escherichia coli. Put plainly: Antimicrobial activity against Escherichia coli ATCC 10536 assessed as growth inhibition after 24 hr by broth dilution assay method. Type of data set: functional. To be noted: ATCC 10536, 24 h.
The nature of data set [2]: Cytotoxicity against Homo sapiens (human) A549 cells assessed as viable cells at 250 uM by MTT assay in presence of fetal bovine serum. In kind it is cell-based. Conditions: A549 cells, read-out: Activity. (Tetrazolium assays rely on reduction of a dye to a coloured formazan, in cell work by metabolically active cells.)

Converted amounts (≈) assume the structure as drawn.

In the case of `C/C(=N\NC(=O)CSc1nnc(-c2nc(C(C)C)cs2)n1-c1ccccc1)c1ccc([N+](=O)[O-])cc1`, the MIC came out at 31.2 µg/mL (≈ 59.9 µM) in the data set on Klebsiella pneumoniae; 125 µg/mL (≈ 240 µM) with Bacillus subtilis; 31.2 µg/mL (≈ 59.9 µM) in the data set with Enterococcus faecalis; 31.2 µg/mL (≈ 59.9 µM) in the data set on Staphylococcus aureus; 62.5 µg/mL (≈ 120 µM) in data set [1]; 125 µg/mL (≈ 240 µM) with Aspergillus niger. For the same compound, the MIC amounted to 31.2 µg/mL (≈ 59.9 µM) in the data set with Candida tropicalis, 125 µg/mL (≈ 240 µM) in the data set with Saccharomyces cerevisiae, 62.5 µg/mL (≈ 120 µM) in the data set on Pseudomonas aeruginosa and 62.5 µg/mL (≈ 120 µM) in the data set on Escherichia coli.
Regarding `COc1ccc(/C(C)=N/NC(=O)CSc2nnc(-c3nc(C(C)C)cs3)n2-c2ccccc2)cc1`, the MIC in the data set with Klebsiella pneumoniae was 250 µg/mL (≈ 493 µM); in the data set on Bacillus subtilis, 62.5 µg/mL (≈ 123 µM); in the data set on Enterococcus faecalis it was 31.2 µg/mL (≈ 61.7 µM); with Staphylococcus aureus, 31.2 µg/mL (≈ 61.7 µM); in data set [1] it was 8 µg/mL (≈ 15.8 µM); in the data set with Aspergillus niger, 125 µg/mL (≈ 247 µM). The MIC in the data set on Candida tropicalis is 125 µg/mL (≈ 247 µM); in the data set on Saccharomyces cerevisiae, 62.5 µg/mL (≈ 123 µM); in the data set with Pseudomonas aeruginosa, 62.5 µg/mL (≈ 123 µM); in the data set on Escherichia coli, 125 µg/mL (≈ 247 µM).
Turning to `C/C(=N\NC(=O)CSc1nnc(-c2nc(C(C)C)cs2)n1-c1ccccc1)c1ccc(O)cc1`, the MIC was determined as 31.2 µg/mL (≈ 63.4 µM) in the data set with Klebsiella pneumoniae; 62.5 µg/mL (≈ 127 µM) in the data set with Bacillus subtilis; 31.2 µg/mL (≈ 63.4 µM) with Enterococcus faecalis; 62.5 µg/mL (≈ 127 µM) in the data set with Staphylococcus aureus; 16 µg/mL (≈ 32.5 µM) in data set [1]; 8 µg/mL (≈ 16.2 µM) in the data set on Aspergillus niger. In addition, the MIC was 8 µg/mL (≈ 16.2 µM) in the data set with Candida tropicalis, 31.2 µg/mL (≈ 63.4 µM) with Saccharomyces cerevisiae, 16 µg/mL (≈ 32.5 µM) in the data set with Pseudomonas aeruginosa and 16 µg/mL (≈ 32.5 µM) with Escherichia coli. For the same compound, the viability at 250 µM in [2] is 50%.
As for `C/C(=N\NC(=O)CSc1nnc(-c2nc(C(C)C)cs2)n1-c1ccccc1)c1ccc(C)cc1`, the MIC with Klebsiella pneumoniae is 16 µg/mL (≈ 32.6 µM); with Bacillus subtilis it was 31.2 µg/mL (≈ 63.7 µM); in the data set with Enterococcus faecalis, 62.5 µg/mL (≈ 127 µM); in the data set on Staphylococcus aureus, 125 µg/mL (≈ 255 µM); in [1] it was 62.5 µg/mL (≈ 127 µM); in the data set with Aspergillus niger it was 31.2 µg/mL (≈ 63.7 µM). Also, the minimal inhibitory concentration (MIC) with Candida tropicalis turned out to be 125 µg/mL (≈ 255 µM); in the data set with Saccharomyces cerevisiae, 62.5 µg/mL (≈ 127 µM); in the data set with Pseudomonas aeruginosa, 62.5 µg/mL (≈ 127 µM); with Escherichia coli, 125 µg/mL (≈ 255 µM).
Take `C/C(=N\NC(=O)CSc1nnc(-c2nc(C(C)C)cs2)n1-c1ccccc1)c1ccc(Br)cc1`: the MIC in the data set on Klebsiella pneumoniae is 31.2 µg/mL (≈ 56.3 µM); in the data set on Bacillus subtilis, 62.5 µg/mL (≈ 113 µM); in the data set on Enterococcus faecalis it was 125 µg/mL (≈ 225 µM); in the data set with Staphylococcus aureus it was 16 µg/mL (≈ 28.8 µM); in data set [1], 31.2 µg/mL (≈ 56.3 µM); in the data set with Aspergillus niger, 31.2 µg/mL (≈ 56.3 µM). The MIC in the data set with Candida tropicalis was found to be 125 µg/mL (≈ 225 µM); in the data set on Saccharomyces cerevisiae, 31.2 µg/mL (≈ 56.3 µM); with Pseudomonas aeruginosa, 125 µg/mL (≈ 225 µM); in the data set with Escherichia coli, 62.5 µg/mL (≈ 113 µM).
For the compound `C/C(=N\NC(=O)CSc1nnc(-c2nc(C(C)C)cs2)n1-c1ccccc1)c1ccc(Cl)cc1`, the MIC was 62.5 µg/mL (≈ 122 µM) in the data set with Klebsiella pneumoniae; 125 µg/mL (≈ 245 µM) with Bacillus subtilis; 31.2 µg/mL (≈ 61.1 µM) in the data set with Enterococcus faecalis; 31.2 µg/mL (≈ 61.1 µM) in the data set with Staphylococcus aureus; 31.2 µg/mL (≈ 61.1 µM) in data set [1]; 125 µg/mL (≈ 245 µM) in the data set on Aspergillus niger. The MIC in the data set on Candida tropicalis came out at 31.2 µg/mL (≈ 61.1 µM); with Saccharomyces cerevisiae, 31.2 µg/mL (≈ 61.1 µM); in the data set on Pseudomonas aeruginosa, 31.2 µg/mL (≈ 61.1 µM); in the data set on Escherichia coli it was 16 µg/mL (≈ 31.3 µM).
Consider `CC(C)c1csc(-c2nnc(SCc3nnc(-c4ccccc4)o3)n2-c2ccccc2)n1`, for which the MIC with Klebsiella pneumoniae was found to be 62.5 µg/mL (≈ 136 µM); with Bacillus subtilis, 31.2 µg/mL (≈ 67.8 µM); in the data set on Enterococcus faecalis, 31.2 µg/mL (≈ 67.8 µM); in the data set on Staphylococcus aureus, 31.2 µg/mL (≈ 67.8 µM); in the data set on Aspergillus niger it was 31.2 µg/mL (≈ 67.8 µM); in the data set with Candida tropicalis, 16 µg/mL (≈ 34.7 µM). Further, the MIC worked out at 16 µg/mL (≈ 34.7 µM) with Saccharomyces cerevisiae, 31.2 µg/mL (≈ 67.8 µM) with Pseudomonas aeruginosa and 125 µg/mL (≈ 271 µM) in the data set with Escherichia coli.
Consider `CC(C)c1csc(-c2nnc(SCc3nnc(CCl)o3)n2-c2ccccc2)n1`, for which the MIC in the data set with Klebsiella pneumoniae stood at 31.2 µg/mL (≈ 72.2 µM); in the data set with Bacillus subtilis, 31.2 µg/mL (≈ 72.2 µM); in the data set with Enterococcus faecalis, 16 µg/mL (≈ 37 µM); in the data set on Staphylococcus aureus, 8 µg/mL (≈ 18.5 µM); with Aspergillus niger it was 31.2 µg/mL (≈ 72.2 µM); in the data set on Candida tropicalis, 125 µg/mL (≈ 289 µM). The MIC in the data set with Saccharomyces cerevisiae was 62.5 µg/mL (≈ 144 µM); in the data set on Pseudomonas aeruginosa, 16 µg/mL (≈ 37 µM); in the data set on Escherichia coli it was 16 µg/mL (≈ 37 µM).
As for `CC(C)c1csc(-c2nnc(SCc3nnc(-c4ccc(Cl)cc4)o3)n2-c2ccccc2)n1`, the MIC in the data set on Klebsiella pneumoniae came to 62.5 µg/mL (≈ 126 µM); in the data set on Bacillus subtilis it was 4 µg/mL (≈ 8.08 µM); with Enterococcus faecalis, 8 µg/mL (≈ 16.2 µM); with Staphylococcus aureus, 8 µg/mL (≈ 16.2 µM); in the data set on Aspergillus niger it was 125 µg/mL (≈ 253 µM); with Candida tropicalis, 125 µg/mL (≈ 253 µM). Also, the MIC in the data set with Saccharomyces cerevisiae, with Pseudomonas aeruginosa and in the data set with Escherichia coli was 62.5 µg/mL (≈ 126 µM) in each case. Moreover, the viability at 250 µM in data set [2] came out at 50%.
`CC(C)c1csc(-c2nnc(SCc3nnc(-c4ccc([N+](=O)[O-])cc4)o3)n2-c2ccccc2)n1`: the MIC in the data set with Klebsiella pneumoniae is 31.2 µg/mL (≈ 61.8 µM); with Bacillus subtilis, 62.5 µg/mL (≈ 124 µM); in the data set on Enterococcus faecalis, 31.2 µg/mL (≈ 61.8 µM); in the data set with Staphylococcus aureus, 31.2 µg/mL (≈ 61.8 µM); in the data set with Aspergillus niger it was 62.5 µg/mL (≈ 124 µM); in the data set with Candida tropicalis, 31.2 µg/mL (≈ 61.8 µM). The MIC in the data set with Saccharomyces cerevisiae turned out to be 62.5 µg/mL (≈ 124 µM); with Pseudomonas aeruginosa, 31.2 µg/mL (≈ 61.8 µM); in the data set with Escherichia coli, 62.5 µg/mL (≈ 124 µM).
`Cc1ccc(-c2nnc(CSc3nnc(-c4nc(C(C)C)cs4)n3-c3ccccc3)o2)cc1`: the MIC in the data set with Klebsiella pneumoniae is 62.5 µg/mL (≈ 132 µM); in the data set on Bacillus subtilis it was 125 µg/mL (≈ 263 µM); with Enterococcus faecalis, 31.2 µg/mL (≈ 65.8 µM); in the data set on Staphylococcus aureus it was 62.5 µg/mL (≈ 132 µM); in the data set with Aspergillus niger it was 125 µg/mL (≈ 263 µM); in the data set with Candida tropicalis, 31.2 µg/mL (≈ 65.8 µM). In addition, the MIC is 125 µg/mL (≈ 263 µM) in the data set with Saccharomyces cerevisiae, 62.5 µg/mL (≈ 132 µM) in the data set on Pseudomonas aeruginosa and 31.2 µg/mL (≈ 65.8 µM) in the data set on Escherichia coli.
